The source of these data is ChEMBL document CHEMBL1152999, “Synthesis and anti-HSV-1 evaluation of some pyrazoles and fused pyrazolopyrimidines” (2009).

For the first experiment, the system named is Human alphaherpesvirus 1. Kind of experiment: Antiviral activity against HSV1 infected in african green monkey Vero cells assessed as reduction in virus plaque formation at 10 ug per 10^5 cells by plaque infectivity assay. The experiment is classed as functional. Details: scale not given: the % may be the effect or the level left.
With `NNc1ncnc2c1cnn2-c1ncnc2sc3c(c12)-c1ccccc1CC3`, the Activity stood at 56%.

`Nc1nc2c(ncn2COCCO)c(=O)[nH]1` [ACYCLOVIR]: the Activity is recorded as 12%.

Turning to `OC[C@@H](O)[C@H](O)[C@@H](O)[C@H](O)/C=N/Nc1ncnc2c1cnn2-c1ncnc2sc3c(c12)-c1ccccc1CC3`, the Activity was 43%.

`CC(=O)OC[C@@H](OC(C)=O)[C@H](OC(C)=O)[C@@H](OC(C)=O)[C@H](OC(C)=O)c1nc2c3cnn(-c4ncnc5sc6c(c45)-c4ccccc4CC6)c3ncn2n1`: the Activity is 29%.

`CC(=O)Nc1c(C#N)cnn1-c1ncnc2sc3c(c12)-c1ccccc1CC3`: the Activity turned out to be 0%.

Consider `N#Cc1cnn(-c2ncnc3sc4c(c23)-c2ccccc2CC4)c1NC=O`, for which the Activity was found to be 28.5%.

For `N#Cc1cnn(-c2ncnc3sc4c(c23)-c2ccccc2CC4)c1N`, the Activity is recorded as 16.6%.

Regarding `Nc1ncnc2c1cnn2-c1ncnc2sc3c(c12)-c1ccccc1CC3`, the Activity worked out at 44.6%.

On to `CC(=O)OC[C@@H](OC(C)=O)[C@H](OC(C)=O)[C@@H](OC(C)=O)[C@@H](/C=N/Nc1ncnc2c1cnn2-c1ncnc2sc3c(c12)-c1ccccc1CC3)OC(C)=O`, for which the Activity is 34%.

In the case of `Cc1nc2c(cnn2-c2ncnc3sc4c(c23)-c2ccccc2CC4)c(=O)[nH]1`, the Activity is 44.4%.

For `O=c1[nH]cnc2c1cnn2-c1ncnc2sc3c(c12)-c1ccccc1CC3`, the Activity is reported as 47.7%.

In a further experiment the test system is Human alphaherpesvirus 1. The experiment in a line: Antiviral activity against HSV1 infected in african green monkey Vero cells assessed as reduction in virus plaque formation at 20 ug per 10^5 cells by plaque infectivity assay. The experiment is classed as functional. Details: scale not given: the % may be the effect or the level left.
As to `NNc1ncnc2c1cnn2-c1ncnc2sc3c(c12)-c1ccccc1CC3`, the Activity was determined as 0%.

Consider `Nc1nc2c(ncn2COCCO)c(=O)[nH]1` [ACYCLOVIR], for which the Activity is given as 28%.

Consider `OC[C@@H](O)[C@H](O)[C@@H](O)[C@H](O)/C=N/Nc1ncnc2c1cnn2-c1ncnc2sc3c(c12)-c1ccccc1CC3`, for which the Activity is reported as 99%.

`CC(=O)OC[C@@H](OC(C)=O)[C@H](OC(C)=O)[C@@H](OC(C)=O)[C@H](OC(C)=O)c1nc2c3cnn(-c4ncnc5sc6c(c45)-c4ccccc4CC6)c3ncn2n1`: the Activity was 57%.

For the compound `CC(=O)Nc1c(C#N)cnn1-c1ncnc2sc3c(c12)-c1ccccc1CC3`, the Activity is 67.6%.

As to `N#Cc1cnn(-c2ncnc3sc4c(c23)-c2ccccc2CC4)c1NC=O`, the Activity stood at 48%.

Take `N#Cc1cnn(-c2ncnc3sc4c(c23)-c2ccccc2CC4)c1N`: the Activity amounted to 0%.

As to `Nc1ncnc2c1cnn2-c1ncnc2sc3c(c12)-c1ccccc1CC3`, the Activity came to 0%.

For `CC(=O)OC[C@@H](OC(C)=O)[C@H](OC(C)=O)[C@@H](OC(C)=O)[C@@H](/C=N/Nc1ncnc2c1cnn2-c1ncnc2sc3c(c12)-c1ccccc1CC3)OC(C)=O`, the Activity came out at 69%.

As for `Cc1nc2c(cnn2-c2ncnc3sc4c(c23)-c2ccccc2CC4)c(=O)[nH]1`, the Activity was 0%.

For `O=c1[nH]cnc2c1cnn2-c1ncnc2sc3c(c12)-c1ccccc1CC3`, the Activity worked out at 0%.
